{"source": "patent US20260183369A1", "about": "“CHEMERIN-CONTAINING FORMULATION FOR TREATING DRY EYE DISEASE” (OKYO Pharma Limited, priority 2022, published 2026)", "test": "solubility and pH stability of OK-101 in sodium phosphate buffer", "assay_type": "physicochemical", "conditions": "read-out: concentration of OK-101 observed (solubility)", "protocol": "The solubility and pH stability of OK-101 at a target concentration of 0.05% w/v, was tested in either 50 mM or 100 mM sodium phosphate buffer. For each concentration of sodium phosphate buffer, the solubility and pH stability were determined in three separate buffer batches, each with a different starting pH.", "note": "Where two headings read alike, the source gives them in different places. Square brackets hold non-standard residues; d marks the D form. Peptide text beside a SMILES is read from it. * marks the point of attachment. PEG8 = NCCOCCOCCOCCOCCOCCOCCOCCOCCC(=O)O; Palmitoyl = CCCCCCCCCCCCCCCC(=O)*; Tic = O=C(O)[C@@H]1Cc2ccccc2CN1"}
{"smiles": "CCCCCCCCCCCCCCCC(=O)NCCOCCOCCOCCOCCOCCOCCOCCOCCC(=O)NCC(=O)NCC(=O)N[C@H](Cc1ccc(O)cc1)C(=O)N[C@@H](Cc1ccccc1)C(=O)N[C@@H](CC(C)C)C(=O)N1CCC[C@H]1C(=O)N[C@H](CO)C(=O)N[C@@H](CCC(N)=O)C(=O)N[C@@H](Cc1ccccc1)C(=O)N[C@H](C)C(=O)N1Cc2ccccc2C[C@H]1C(=O)N[C@@H](CO)C(=O)O", "note": "[OK-101] ({Palmitoyl-PEG8}-GG[dY]FLP[dS]QF[dA][Tic]S-OH)", "values": [{"measurement": "solubility", "setting": "three batches of 50 mM sodium phosphate buffer", "value": "> 25", "unit": "mg/mL"}, {"measurement": "solubility", "setting": "three batches of 100 mM sodium phosphate buffer", "value": "> 30", "unit": "mg/mL"}]}
